The text below walks through data of patent US8637511B2, “Aminopyrimidines useful as kinase inhibitors” (Vertex Pharmaceuticals Incorporated, priority 2005, dated 2014).

Where “and” joins values, the source holds several entries; their conditions need not be identical. Equal entries are not always repeated. Where two headings read alike, the source gives them in different places.

The subject of assay [1] is Colo205 cells. The assay is described as follows: Analysis of cell proliferation and viability. The class given is cell-based. As to conditions: Homo sapiens, read-out: IC50 value. The procedure: Colo205 cells were seeded in 96 well plates and serially diluted compound was added to the wells in duplicate. Control groups included untreated cells, the compound diluent (0.1% DMSO alone) and culture medium without cells.
To measure proliferation, 3 h prior to the end of the experiment 0.5 μCi of 3H thymidine was added to each well. Cells were then harvested and the incorporated radioactivity counted on a Wallac microplate beta-counter. Cell viability was assessed using Promega CellTiter 96AQ to measure MTS conversion. Dose response curves were calculated using either Prism 3.0 (GraphPad) or SoftMax Pro 4.3.1 LS (Molecular Devices) software.

Assay [2] concerns the target Aurora-1 (Aurora B) (Homo sapiens, UniProt Q96GD4). The experiment in a line: Aurora-1 (Aurora B) inhibition assay (radiometric). The class given is biochemical. As to conditions: read-out: Aurora B kinase Ki value. Here is the method:
An assay buffer solution was prepared which consisted of 25 mM HEPES (pH 7.5), 10 mM MgCl2, 0.1% BSA and 10% glycerol. […] To 22 μL of the Aurora-B solution, in a 96-well plate, was added 2 μl of a compound stock solution in DMSO and the mixture allowed to equilibrate for 10 minutes at 25° C. The enzyme reaction was initiated by the addition of 16 μl stock [γ-^33P]-ATP solution (˜20 nCi/μL) prepared in assay buffer, to a final assay concentration of 800 μM. The reaction was stopped after 3 hours by the addition of 16 μL 500 mM phosphoric acid and the levels of ^33P incorporation into the peptide substrate were determined by the following method.
A phosphocellulose 96-well plate (Millipore, Cat no. MAPHNOB50) was pre-treated with 100 μL of a 100 mM phosphoric acid prior to the addition of the enzyme reaction mixture (40 μL). The solution was left to soak on to the phosphocellulose membrane for 30 minutes and the plate subsequently washed four times with 200 μL of a 100 mM phosphoric acid. […] Levels of non-enzyme catalyzed background radioactivity were determined by adding 16 μL of the 500 mM phosphoric acid to control wells, containing all assay components (which acts to denature the enzyme), prior to the addition of the [γ-^33P]-ATP solution. Levels of enzyme catalyzed. ^33P incorporation were calculated by subtracting mean background counts from those measured at each inhibitor concentration. […] Ki values were calculated from initial rate data by non-linear regression using the Prism software package (Prism 3.0, Graphpad Software, San Diego, Calif.).

In assay [3] the target is T1, Aurora-2 (Aurora A) (Homo sapiens, UniProt O14965).
T1 sequence (O14965 1-403): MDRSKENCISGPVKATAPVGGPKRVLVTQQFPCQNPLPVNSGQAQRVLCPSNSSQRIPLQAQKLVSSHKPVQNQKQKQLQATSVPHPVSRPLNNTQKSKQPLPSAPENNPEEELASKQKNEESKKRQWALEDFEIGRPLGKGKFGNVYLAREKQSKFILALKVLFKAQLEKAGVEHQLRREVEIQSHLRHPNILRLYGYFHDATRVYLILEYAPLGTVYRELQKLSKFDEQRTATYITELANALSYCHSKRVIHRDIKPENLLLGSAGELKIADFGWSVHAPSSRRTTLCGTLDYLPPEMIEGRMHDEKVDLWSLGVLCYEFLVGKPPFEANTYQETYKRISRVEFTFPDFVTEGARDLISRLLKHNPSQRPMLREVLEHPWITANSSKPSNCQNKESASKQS
The assay is described as follows: Aurora-2 (Aurora A) inhibition assay, coupled enzyme. The class given is biochemical. As to conditions: read-out: Aurora A kinase Ki value. The procedure: Assays were carried out in a mixture of 100 mM Hepes (pH7.5), 10 mM MgCl2, 1 mM DTT, 25 mM NaCl, 2.5 mM phosphoenolpyruvate, 300 μM NADH, 30 μg/ml pyruvate kinase and 10 μg/ml lactate dehydrogenase. […] Assays were carried out at 30° C. and in the presence of 40 nM Aurora-2.
The plate was preincubated for 10 minutes at 30° C. and the reaction initiated by addition of 10 μl of Aurora-2. Initial reaction rates were determined with a Molecular Devices SpectraMax Plus plate reader over a 10 minute time course. IC50 and Ki data were calculated from non-linear regression analysis using the Prism software package (GraphPad Prism version 3.0cx for Macintosh, GraphPad Software, San Diego Calif., USA).

[4] abbreviates: COLO 205, Colo205 cells, incubated for 72 hours.
Where [5] appears, read: COLO 205, Colo205 cells, incubated for 96 hours.

Aurora-1 (Aurora B), sequence (Q96GD4 whole entry): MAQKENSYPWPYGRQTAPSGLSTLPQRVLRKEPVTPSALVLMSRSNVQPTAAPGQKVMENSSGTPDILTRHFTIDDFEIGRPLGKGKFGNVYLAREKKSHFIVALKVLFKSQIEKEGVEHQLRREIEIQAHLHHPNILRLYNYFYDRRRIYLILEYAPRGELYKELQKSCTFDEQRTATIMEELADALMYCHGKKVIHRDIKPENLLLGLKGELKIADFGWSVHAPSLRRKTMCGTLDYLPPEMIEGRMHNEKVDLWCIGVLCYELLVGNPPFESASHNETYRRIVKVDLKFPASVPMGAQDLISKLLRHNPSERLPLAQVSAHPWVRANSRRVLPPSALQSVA

What is called IC50 is the midpoint of a concentration-inhibition curve. Take `Cc1cc(Nc2cc(N3CCC3)nc(Sc3ccc(NC(=O)c4ccccc4C(F)F)cc3)n2)[nH]n1` [Compound 120]: the IC50 in assay [1] (setting [4]) is over 200 nM.

What is called Ki is a measure of affinity in units of concentration, obtained from inhibition or displacement. Turning to `Cc1cc(Nc2cc(N3CC(O)(C4CC4)C3)nc(Sc3ccc4nc(C)ccc4c3)n2)[nH]n1` [Compound 153], the Ki in assay [2] is at most 10 nM; in assay [3], at most 1 nM. The IC50 in assay [1] (setting [5]) is at most 50 nM.

In the case of `Cc1cc(Nc2cc(N3CC(F)(F)C3)nc(Sc3ccc(NC(=O)CC(F)(F)F)cc3)n2)[nH]n1` [Compound 130], the Ki in assay [2] was 10 to 50 nM and < 25 nM; in assay [3], 1 to 5 nM. For the same molecule, the IC50 in assay [1] (setting [4]) lay in the range of 30 to 200 nM.

Turning to `Cc1cc(Nc2cc(N3CC(F)(C4CC4)C3)nc(Sc3ccc4nc(CC(F)(F)F)n(C)c4c3)n2)[nH]n1` [Compound 187], the Ki in assay [2] was at most 10 nM; in assay [3], at most 1 nM. Besides, in assay [1] (setting [4]), the IC50 is at most 30 nM.

For the molecule `CCC(=O)Nc1ccc(Sc2nc(Nc3cc(C)n[nH]3)cc(N3CC(O)(c4ccccc4C)C3)n2)cc1` [Compound 93], the Ki in assay [2] was 50 to 2000 nM; in assay [3], at most 1 nM. Also, in assay [1] (setting [5]), the IC50 lay within 50 to 1000 nM.

Consider `Cc1cc(Nc2cc(N3CCC3)nc(Sc3ccc(NC(=O)c4ncccc4C)cc3)n2)[nH]n1` [Compound 200], for which the Ki in assay [2] fell in the range of 50 to 2000 nM; in assay [3], 5 to 200 nM. The IC50 in assay [1] (setting [4]) is over 200 nM.

`Cc1cc(Nc2cc(NCC3(C)COC3)nc(Sc3ccc(NC(=O)c4ccccc4Cl)cc3)n2)[nH]n1` [Compound 208]: the Ki in assay [2] was at most 10 nM; in assay [3], at most 1 nM. Moreover, in assay [1] (setting [4]), the IC50 lay in the range of 30 to 200 nM.

On to `Cc1cc(Nc2cc(N3CC(C)(C#N)C3)nc(Sc3ccc(NC(=O)c4ccccc4C(F)(F)F)cc3)n2)[nH]n1` [Compound 122], for which the figures for the Ki in assay [2] and in assay [3] were at most 10 nM and at most 1 nM, respectively. In addition, the concentration for half-maximal inhibition (IC50) in assay [1] (setting [4]) lay in the range of 30 to 200 nM.

In the case of `CCCCOC1(C2CC2)CN(c2cc(Nc3cc(C)n[nH]3)nc(Sc3ccc(NC(=O)C4CC4)cc3)n2)C1` [Compound 111], the Ki in assay [2] was at most 10 nM; in assay [3] it was at most 1 nM. For the same molecule, the IC50 in assay [1] (setting [5]) is at most 50 nM.

As to `CCC(=O)Nc1ccc(Sc2nc(Nc3cc(C)n[nH]3)cc(N3CC(O)(CC)C3)n2)cc1` [Compound 98], in assay [1] (setting [5]), the IC50 fell in the range of 50 to 1000 nM.

Turning to `CCC(=O)Nc1ccc(Sc2nc(Nc3cc(C)n[nH]3)cc(N3CC(N4CCC4)C3)n2)cc1` [Compound 70], the Ki in assay [2] lay in the range of 50 to 2000 nM; in assay [3], 1 to 5 nM. Moreover, in assay [1] (setting [5]), the concentration for half-maximal inhibition (IC50) was at most 50 nM.

For the molecule `CC(=O)OC1(C2CC2)CN(c2cc(Nc3cc(C)n[nH]3)nc(Sc3ccc(NC(=O)C4CC4)cc3)n2)C1` [Compound 107], the Ki in assay [2] was 10 to 50 nM; in assay [3], at most 1 nM. The IC50 in assay [1] (setting [5]) is at most 50 nM.

`Cc1cc(Nc2cc(N3CC(F)(C4CC4)C3)nc(Sc3ccc4nc(C)ccc4c3)n2)[nH]n1` [Compound 154]: the Ki in assay [2] was 10 to 50 nM and < 25 nM; in assay [3], at most 1 nM. For the same molecule, the IC50 in assay [1] (setting [5]) fell in the range of 50 to 1000 nM.

For the molecule `Cc1cc(Nc2cc(N3CCC3)nc(Sc3ccc(-n4ccccc4=O)cc3)n2)[nH]n1` [Compound 47], the inhibition constant (Ki) in assay [2] was 50 to 2000 nM; in assay [3], 5 to 200 nM. The IC50 in assay [1] (setting [5]) was over 1000 nM.

Consider `CC(=O)Nc1ccc(Nc2nc(Nc3cc(C)n[nH]3)cc(N3CC(F)(C4CC4)C3)n2)cc1` [Compound 201], for which the Ki was 50 to 2000 nM in assay [2] and 5 to 200 nM in assay [3]. In addition, in assay [1] (setting [5]), the IC50 was 50 to 1000 nM.

For `CCC(=O)Nc1ccc(Sc2nc(Nc3cc(C)[nH]n3)cc(N3CC(F)(C4CC4)C3)n2)cc1` [Compound 147], in assay [1] (COLO 205, 72 h), the IC50 is 30 to 200 nM. Further, the Ki in assay [3] was in the range of 1 to 5 nM.

As to `CCN(CC)C(=O)Nc1ccc(Sc2nc(Nc3cc(C)[nH]n3)cc(N3CCC3)n2)cc1` [Compound 72], the Ki in assay [2] was in the range of 50 to 2000 nM; in assay [3], 5 to 200 nM. The IC50 in assay [1] (setting [5]) is over 1000 nM.
